Source: ChEMBL document CHEMBL4420066, “Aryl amine substituted quinoxaline used as anticancer drugs” (2017)
Activity calls are given as the source filed them.

Legend:
SK-HEP1 [1] = test: Inhibition of CIP2A protein expression in human SKHEP1 cells assessed as CIP2A protein expression ratio level at 4 uM by Western blotting analysis (; format: functional
Homo sapiens [2] = species: Homo sapiens; test: Inhibition of CIP2A protein expression in human PLC5 cells by Western blotting analysis; format: functional, cell-based
SK-HEP1 [3] = test: Induction of apoptosis in human SKHEP1 cells assessed as induction of PARP cleavage at 0.5 to 4 uM incubated for 48 hrs by Western blotting analysis; format: functional, cell-based
Hep 3B2 [4] = test: Induction of apoptosis in human Hep3B cells >= 2 uM incubated for 48 hrs by annexin-V-FITC staining based by flow cytometry relative to control; format: functional
Homo sapiens [5] = species: Homo sapiens; test: Inhibition of CIP2A protein expression in human PLC5 cells at 2 uM by Western blotting analysis; format: functional, cell-based
[6] = Inhibition of CIP2A protein expression in human PLC5 cells assessed as CIP2A protein expression ratio level at 2 uM by Western blotting analysis (Rvb =1); format: functional
Hep 3B2 [7] = test: Inhibition of CIP2A protein expression in human Hep3B cells assessed as CIP2A protein expression ratio level at 0.5 uM by Western blotting analysis (Rvb =1); format: functional
Homo sapiens [8] = species: Homo sapiens; test: Inhibition of human CIP2A gene promoter -110/-1 mutant construct activity in human PLC5 cells by luciferase reporter gene assay; format: cell-based
[9] = molecular target: T1, Serine/threonine-protein kinase AKT (Homo sapiens) (UniProt P31751+Q9Y243+P31749); test: Inhibition of Akt phosphorylation at S473 residue in human HA22T cells at 1 uM by Western blotting analysis; format: cell-based; details: TDE = time-dependent effect
T1 sequence (P31749 whole entry, looked up): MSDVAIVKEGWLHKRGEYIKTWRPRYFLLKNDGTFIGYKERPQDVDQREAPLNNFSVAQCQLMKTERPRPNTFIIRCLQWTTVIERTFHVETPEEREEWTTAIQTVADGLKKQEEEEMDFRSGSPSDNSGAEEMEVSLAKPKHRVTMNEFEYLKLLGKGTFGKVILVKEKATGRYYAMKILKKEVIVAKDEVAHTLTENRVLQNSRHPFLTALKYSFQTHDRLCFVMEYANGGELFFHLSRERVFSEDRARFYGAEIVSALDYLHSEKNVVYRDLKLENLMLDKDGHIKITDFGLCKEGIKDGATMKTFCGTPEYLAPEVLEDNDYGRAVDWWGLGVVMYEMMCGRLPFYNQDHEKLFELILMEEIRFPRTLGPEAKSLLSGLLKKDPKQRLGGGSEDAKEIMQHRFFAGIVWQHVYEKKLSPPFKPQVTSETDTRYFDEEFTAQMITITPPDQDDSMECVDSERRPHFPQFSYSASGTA
T1 sequence (P31751 whole entry, looked up): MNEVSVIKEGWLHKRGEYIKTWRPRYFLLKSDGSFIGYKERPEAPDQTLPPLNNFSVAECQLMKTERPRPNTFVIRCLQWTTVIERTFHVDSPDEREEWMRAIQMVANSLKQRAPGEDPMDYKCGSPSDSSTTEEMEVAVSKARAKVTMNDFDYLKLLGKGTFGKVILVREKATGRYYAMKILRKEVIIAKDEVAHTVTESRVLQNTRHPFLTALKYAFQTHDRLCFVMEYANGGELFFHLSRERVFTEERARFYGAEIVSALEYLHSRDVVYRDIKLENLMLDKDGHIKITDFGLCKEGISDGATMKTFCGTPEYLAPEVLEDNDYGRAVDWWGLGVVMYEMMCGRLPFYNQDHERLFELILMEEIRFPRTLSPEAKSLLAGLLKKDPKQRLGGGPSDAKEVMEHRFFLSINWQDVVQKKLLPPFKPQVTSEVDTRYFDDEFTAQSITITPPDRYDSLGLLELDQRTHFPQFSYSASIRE
T1 sequence (Q9Y243 whole entry, looked up): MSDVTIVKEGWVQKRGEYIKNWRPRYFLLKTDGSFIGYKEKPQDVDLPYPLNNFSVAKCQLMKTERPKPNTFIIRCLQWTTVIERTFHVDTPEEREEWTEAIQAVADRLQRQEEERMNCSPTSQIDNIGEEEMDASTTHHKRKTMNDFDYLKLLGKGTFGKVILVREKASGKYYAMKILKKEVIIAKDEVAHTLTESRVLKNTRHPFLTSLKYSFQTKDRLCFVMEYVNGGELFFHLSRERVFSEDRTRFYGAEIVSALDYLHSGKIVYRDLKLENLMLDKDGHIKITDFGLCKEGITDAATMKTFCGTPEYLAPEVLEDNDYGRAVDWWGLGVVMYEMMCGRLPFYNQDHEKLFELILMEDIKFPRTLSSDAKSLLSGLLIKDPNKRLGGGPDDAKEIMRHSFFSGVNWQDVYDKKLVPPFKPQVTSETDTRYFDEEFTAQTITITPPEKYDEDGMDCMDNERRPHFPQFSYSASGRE

Homo sapiens [10] = species: Homo sapiens; test: Induction of apoptosis in human PLC5 cells with ectopic over expression of myc-tagged CIP2A at 2 uM incubated for 24 hrs by annexin-V-FITC staining based by flow cytometry; format: functional, cell-based
Hep 3B2 [11] = test: Inhibition of CIP2A protein expression in human Hep3B cells assessed as CIP2A protein expression ratio level at 1 uM by Western blotting analysis (Rvb =1); format: functional
Hep 3B2 [12] = test: Inhibition of CIP2A protein expression in human Hep3B cells assessed as CIP2A protein expression ratio level at 2 uM by Western blotting analysis (Rvb =1); format: functional
Mus musculus = test: Suppression of Akt phosphorylation at S473 residue in tumor of human PLC5 cells xenografted in mouse at 10 mg/kg dosed for 4 weeks by Western blot analysis; format: functional, organism-based
HA22T cell line [13] = test: Inhibition of CIP2A protein expression in human HA22T cells assessed as CIP2A protein expression ratio level at 0.5 uM by Western blotting analysis (Rvb =1); format: functional
SK-HEP1 [14] = test: Induction of apoptosis in human SKHEP1 cells assessed as induction of DNA fragmentation at 1 uM incubated for 24 hrs by ELISA; format: functional, cell-based
SK-HEP1 [15] = test: Inhibition of CIP2A protein expression in human SKHEP1 cells assessed as CIP2A protein expression ratio level at 1uM by Western blotting analysis (Rvb =1); format: functional
Homo sapiens [16] = species: Homo sapiens; test: Induction of apoptosis in human PLC5 cells assessed as accumulation at subG1 phase at 0.5 to 4 uM by flow cytometry; format: functional, cell-based
Homo sapiens [17] = species: Homo sapiens; test: Induction of apoptosis in human PLC5 cells assessed as caspase-9 activation at 0.5 to 4 uM incubated for 48 hrs by Western blotting analysis; format: functional, cell-based
Hep 3B2 [18] = test: Inhibition of PP2A-B5 protein expression in human Hep3B cells at 1 uM incubated for 24 hrs by Western blotting analysis; format: functional, cell-based
SK-HEP1 [19] = test: Inhibition of CIP2A protein expression in human SKHEP1 cells assessed as CIP2A protein expression ratio level at 2 uM by Western blotting analysis (Rvb =1); format: functional
[20] = Induction of apoptosis in human PLC5 cells >= 2 uM incubated for 48 hrs by annexin-V-FITC staining based by flow cytometry relative to control; format: functional
SK-HEP1 [21] = test: Inhibition of PP2A-B5 protein expression in human SKHEP1 cells at 1 uM incubated for 24 hrs by Western blotting analysis; format: functional, cell-based
[22] = molecular target: T1, Serine/threonine-protein kinase AKT (Homo sapiens); test: Inhibition of Akt phosphorylation at S473 residue in human HA22T cells by Western blotting analysis; format: cell-based
HA22T cell line [23] = test: Inhibition of PP2A-C protein expression in human HA22T cells at 1 uM incubated for 24 hrs by Western blotting analysis; format: functional, cell-based
SK-HEP1 [24] = test: Induction of apoptosis in human SKHEP1 cells assessed as caspase-9 activation at 0.5 to 4 uM incubated for 48 hrs by Western blotting analysis; format: functional, cell-based
Homo sapiens [25] = species: Homo sapiens; test: Inhibition of ELK1 protein expression in human PLC5 cells at 2 uM by Western blotting analysis; format: functional, cell-based
Homo sapiens [26] = species: Homo sapiens; test: Induction of CIP2A protein degradation in human PLC5 cells incubated for 4 to 24 hrs; format: functional, cell-based
HA22T cell line [27] = test: Induction of apoptosis in human HA22T cells assessed as accumulation at subG1 phase at 0.5 to 4 uM by flow cytometry; format: functional, cell-based
Homo sapiens [28] = species: Homo sapiens; test: Cytotoxicity against human PLC5 cells assessed as reduction in cell viability at 0.5 to 4 uM incubated for 48 hrs by MTT assay; format: functional, cell-based
SK-HEP1 [29] = test: Inhibition of CIP2A protein expression in human SKHEP1 cells by Western blotting analysis; format: functional, cell-based
[30] = Inhibition of CIP2A protein expression in human PLC5 cells assessed as CIP2A protein expression ratio level at 0.5 uM by Western blotting analysis (Rvb =1); format: functional
HA22T cell line [31] = test: Inhibition of PP2A-A protein expression in human HA22T cells at 1 uM incubated for 24 hrs by Western blotting analysis; format: functional, cell-based
HA22T cell line [32] = test: Inhibition of CIP2A protein expression in human HA22T cells assessed as CIP2A protein expression ratio level at 4 uM by Western blotting analysis (Rvb =1); format: functional
Homo sapiens [33] = species: Homo sapiens; test: Induction of apoptosis in human PLC5 cells with ectopic overexpression of GFP-tagged Elk-1 at 2 uM incubated for 24 hrs by annexin-V-FITC staining based by flow cytometry; format: functional, cell-based
Hep 3B2 [34] = test: Induction of apoptosis in human Hep3B cells assessed as caspase-3 activation at 0.5 to 4 uM incubated for 48 hrs by Western blotting analysis; format: functional, cell-based
Hep 3B2 [35] = test: Induction of apoptosis in human Hep3B cells assessed as induction of DNA fragmentation at 1 uM incubated for 24 hrs by ELISA; format: functional, cell-based
Hep 3B2 [36] = test: Induction of necrosis in human Hep3B cells >= 2 uM incubated for 48 hrs by annexin-V-FITC staining based by flow cytometry relative to control; format: functional
SK-HEP1 [37] = test: Induction of apoptosis in human SKHEP1 cells assessed as caspase-3 activation at 0.5 to 4 uM incubated for 48 hrs by Western blotting analysis; format: functional, cell-based
Homo sapiens [38] = species: Homo sapiens; test: Induction of apoptosis in human PLC5 cells at 2 uM incubated for 24 hrs in presence of 100 nM PP2A inhibitor okadaic acid by annexin-V-FITC staining based by flow cytometry; format: functional, cell-based
Homo sapiens [39] = species: Homo sapiens; test: Induction of necrosis in human PLC5cells >= 2 uM incubated for 48 hrs by annexin-V-FITC staining based by flow cytometry relative to control; format: functional
SK-HEP1 [40] = test: Inhibition of PP2A-A protein expression in human SKHEP1 cells at 1 uM incubated for 24 hrs by Western blotting analysis; format: functional, cell-based

C#Cc1cccc(Nc2nc3ccccc3nc2Nc2cccc(C#C)c2)c1
0.49: Ratio (Hep 3B2 [12])
0.32: Ratio (SK-HEP1 [15])
0.57: Ratio (Hep 3B2 [11])
0.1: Ratio (SK-HEP1 [1])
inactive: inhibition (Homo sapiens [5]) | inhibition (Homo sapiens [8]) | Activity (Homo sapiens [10]) | inhibition (Hep 3B2 [18]) | inhibition (SK-HEP1 [21]) | inhibition (HA22T cell line [23]) | inhibition (Homo sapiens [25]) | Activity (Homo sapiens [26]) | inhibition (HA22T cell line [31]) | Activity (Homo sapiens [33]) | Activity (Homo sapiens [38]) | inhibition (SK-HEP1 [40])
0.84: Ratio [30]
0.87: Ratio (Hep 3B2 [7])
0.01: Ratio [6] | Ratio (HA22T cell line [32])
50%: Activity (Hep 3B2 [4]) | Activity [20] | Activity (Hep 3B2 [36]) | Activity (Homo sapiens [39])
active: inhibition (Homo sapiens [2]) Dose-dependent effect | Activity (SK-HEP1 [3]) Dose-dependent effect | inhibition [9] Tde | Activity (Mus musculus) | Activity (SK-HEP1 [14]) | Activity (Homo sapiens [16]) | Activity (Homo sapiens [17]) Dose-dependent effect | inhibition [22] Dose-dependent effect | Activity (SK-HEP1 [24]) Dose-dependent effect | Activity (HA22T cell line [27]) | Activity (Homo sapiens [28]) | inhibition (SK-HEP1 [29]) Dose-dependent effect | Activity (Hep 3B2 [34]) Dose-dependent effect | Activity (Hep 3B2 [35]) | Activity (SK-HEP1 [37]) Dose-dependent effect
0.21: Ratio (SK-HEP1 [19])
0.99: Ratio (HA22T cell line [13])
